Our source for the IC50 values is patent US12600728B2, “Interleukin-17 inhibitors” (priority 2020, dated 2026).

The target in the first assay is biotinylated human IL-17A / AF647-labeled human IL-17RA (Homo sapiens, UniProt Q16552). As to the kind of experiment: Human IL-17A×IL-17RA TR-FRET assay. Type of assay: binding. The following applies: IL17AA FRET/ IL17Rawt IC50, TR-FRET, 5 nM IL-17A, 30 nM IL-17RA. The protocol: Human IL-17A×IL-17RA TR-FRET Assay
Chain of biotinylated human IL-17A / AF647-labeled human IL-17RA (Q16552 24-155): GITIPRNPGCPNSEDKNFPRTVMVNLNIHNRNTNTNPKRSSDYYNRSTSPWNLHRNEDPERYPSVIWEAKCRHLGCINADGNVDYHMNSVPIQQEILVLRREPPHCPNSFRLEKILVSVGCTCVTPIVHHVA
Each compound concentration is tested in duplicate.
The final total assay volume is 10 μL.
Each plate contains test compounds in columns 1-22 and controls in columns 23 and 24. The neutral control (NC) contains all the assay components, but DMSO instead of test compound. […] The fluorescence values for emission at 615 nm and 665 nm are loaded to the evaluation software Helios.
From the activity data at each compound concentration, the IC50 values are obtained using the 4-parameter logistic function (“Hill-slope model”) of Helios.
In turn, `CCn1nccc1C(=O)NC(C(=O)Nc1ccc(-c2c(C(F)(F)F)cc[n+]([O-])c2C)cc1)C1CC2CC2C1` (single isomer, unassigned) [Example 154] registered an IC50 of 6300 nM.

Still in this assay, the particulars now being: IL17AA FRET/ IL17Rawt IC50, TR-FRET, biotinylated human IL-17A 5 nM, AF647-labeled human IL-17RA 30 nM.
`Cc1c(-c2ccc(NC(=O)C(NC(=O)c3ccnn3C)C3CC4C(C3)C4(F)F)cc2)c(Cl)cc[n+]1[O-]` (single isomer, unassigned) [Example 54b] returned an IC50 of 10900 nM.

`Cc1c[n+]([O-])ccc1-c1ccc(NC(=O)[C@@H](NC(=O)c2ccnn2C)C2CCCCC2)cc1` [Example 111, (S)-4-(4-(2-cyclohexyl-2-(1-methyl-1H-pyrazole-5-carboxamido)acetamido)phenyl)-3-methylpyridine I-oxide] came in with an IC50 of 4780 nM.

Staying with this assay, now noted: TR-FRET, 5 nM IL-17A, 30 nM IL-17RA; read-out: IL17AA FRET/ IL17Rawt IC50.
As for `Cc1cc[n+]([O-])c(C)c1-c1ccc(NC(=O)C(NC(=O)c2ccc3n2CCN(C)C3)C2CC3CC3C2)cc1` (single isomer, unassigned) [Example 150], the IC50 turned out to be 464 nM.

On to `Cc1cc[n+]([O-])c(C)c1-c1ccc(NC(=O)[C@@H](NC(=O)c2ccc3n2CCN(C)C3)[C@H]2CCCC(F)(F)C2)cc1` [Example 152, 3-(4-((S)-2-((S)-3,3-difluorocyclohexyl)-2-(2-methyl-1,2,3,4-tetrahydropyrrolo[1,2-a]pyrazine-6-carboxamido)acetamido)phenyl)-2,4-dimethylpyridine 1-oxide], for which the IC50 turned out to be 391 nM. `Cc1cc[n+]([O-])c(C)c1-c1ccc(NC(=O)[C@@H](NC(=O)c2ccc3n2CCN(C)C3)C2CCCC2)cc1` [Example 153, (S)-3-(4-(2-cyclopentyl-2-(2-methyl-1,2,3,4-tetrahydropyrrolo[1,2-a]pyrazine-6-carboxamido)acetamido)phenyl)-2,4-dimethylpyridine 1-oxide]: the IC50 came to 798 nM. Regarding `Cc1cc[n+]([O-])c(C)c1-c1ccc(NC(=O)[C@@H](NC(=O)c2conc2CO)C2CCC(F)(F)CC2)cc1` [Example 155, (S)-3-(4-(2-(4,4-difluorocyclohexyl)-2-(3-(hydroxymethyl)isoxazole-4-carboxamido)acetamido)phenyl)-2,4-dimethylpyridine 1-oxide], the IC50 is 1150 nM. Turning to `Cc1c(-c2ccc(NC(=O)C(NC(=O)c3ccc4n3CCN(C)C4)[C@@H]3C[C@@H]4[C@H](C3)C4(F)F)cc2)c(Cl)cc[n+]1[O-]` (stereo partly drawn) [Example 165, 4-chloro-3-(4-(2-((1R,3s,5S)-6,6-difluorobicyclo[3.1.0]hexan-3-yl)-2-(2-methyl-1,2,3,4-tetrahydropyrrolo[1,2-a]pyrazine-6-carboxamido)acetamido)phenyl)-2-methylpyridine 1-oxide], the IC50 was found to be 301 nM.

The assay is the same for the next values; noted with them: TR-FRET, biotinylated human IL-17A 5 nM, AF647-labeled human IL-17RA 30 nM; read-out: IL17AA FRET/ IL17Rawt IC50.
As for `Cc1c(-c2ccc(NC(=O)[C@@H](NC(=O)c3ccc4n3CCN(C)C4)C3CCC(F)CC3)cc2)c(Cl)cc[n+]1[O-]` (mixture of isomers) [Example 129, 4-chloro-3-(4-((2S)-2-(4-fluorocyclohexyl)-2-(2-methyl-1,2,3,4-tetrahydropyrrolo[1,2-a]pyrazine-6-carboxamido)acetamido)phenyl)-2-methylpyridine 1-oxide], the IC50 amounted to 382 nM.

Regarding `CCn1nccc1C(=O)N[C@@H](C(=O)Nc1ccc(-c2c(Cl)cc[n+]([O-])c2C)cc1)C1CCC(F)(F)CC1` (single isomer, unassigned) [Example 13b], the IC50 came out at 30400 nM.

With `CCn1nccc1C(=O)NC(C(=O)Nc1ccc(-c2c(Cl)cc[n+]([O-])c2C)cc1)C1CCC(C(F)(F)F)CC1` [Example 20, 4-chloro-3-(4-((S)-2-(1-ethyl-1H-pyrazole-5-carboxamido)-2-((1r,4S)-4-(trifluoromethyl)cyclohexyl)acetamido)phenyl)-2-methylpyridine 1-oxi], the IC50 stood at 680 nM. On to `Cc1cc[n+]([O-])c(C)c1-c1ccc(NC(=O)C(NC(=O)c2ccnn2C)C2(C)CCCCC2)cc1` (stereo not drawn) [Example 43, 2,4-dimethyl-3-(4-(2-(1-methyl-1H-pyrazole-5-carboxamido)-2-(1-methylcyclohexyl)acetamido)phenyl)pyridine 1-oxide], for which the IC50 stood at 78900 nM. With `Cc1nc(C(F)(F)F)c(C(=O)N[C@H](C(=O)Nc2ccc(-c3c(C(F)(F)F)cc[n+]([O-])c3C)cc2)C2CCCC2)s1` [Example 73, (S)-3-(4-(2-cyclopentyl-2-(2-methyl-4-(trifluoromethyl)thiazole-5-carboxamido)acetamido)phenyl)-2-methyl-4-(trifluoromethyl)pyridine 1-oxide], the IC50 was 1410 nM.

Take `Cc1cc[n+]([O-])c(C)c1-c1ccc(NC(=O)[C@@H](NC(=O)c2conc2CN(C)C)C2CCCCC2)cc1` [Example 80, (S)-3-(4-(2-cyclohexyl-2-(3-((dimethylamino)methyl)isoxazole-4-carboxamido)acetamido)phenyl)-2,4-dimethylpyridine 1-oxide]: the IC50 stood at 4450 nM. On the same count and under the same terms, the same measure for `Cc1cc[n+]([O-])cc1-c1ccc(NC(=O)[C@@H](NC(=O)c2ccnn2C)C2CCCCC2)cc1` [Example 81, (S)-3-(4-(2-cyclohexyl-2-(1-methyl-1H-pyrazole-5-carboxamido)acetamido)phenyl)-4-methylpyridine 1-oxide]: 3740 nM; for `Cc1c(-c2ccc(NC(=O)[C@@H](NC(=O)c3ccnn3C)C3CCCCC3)c(Cl)c2)c(Cl)cc[n+]1[O-]` [Example 85, (S)-4-chloro-3-(3-chloro-4-(2-cyclohexyl-2-(1-methyl-1H-pyrazole-5-carboxamido)acetamido)phenyl)-2-methylpyridine 1-oxide]: 20900 nM.

For the compound `Cc1c[n+]([O-])cc(C)c1-c1ccc(NC(=O)[C@@H](NC(=O)c2ccnn2C2CC2)C2CCCCC2)cc1` [Example 98, (S)-4-(4-(2-cyclohexyl-2-(1-cyclopropyl-1H-pyrazole-5-carboxamido)acetamido)phenyl)-3,5-dimethylpyridine 1-oxide], the IC50 was determined as 1400 nM. For `Cc1cc[n+]([O-])c(F)c1-c1ccc(NC(=O)[C@@H](NC(=O)c2ccnn2C)C2CCCCC2)cc1` [Example 114, (S)-3-(4-(2-cyclohexyl-2-(1-methyl-1H-pyrazole-5-carboxamido)acetamido)phenyl)-2-fluoro-4-methylpyridine 1-oxide], the IC50 is 2790 nM. Same read-out and setting: the same measure for `Cc1cc[n+]([O-])c(C)c1-c1ccc(NC(=O)[C@@H](NC(=O)c2ccc3n2CCN(C2CC2)C3)C2CCCCC2)cc1` [Example 131, (S)-3-(4-(2-cyclohexyl-2-(2-cyclopropyl-1,2,3,4-tetrahydropyrrolo[1,2-a]pyrazine-6-carboxamido)acetamido)phenyl)-2,4-dimethylpyridine 1-oxide]: 102 nM; for `Cc1cc[n+]([O-])c(C)c1-c1ccc(NC(=O)[C@@H](NC(=O)c2ccc3n2CCN(C2COC2)C3)[C@H]2CC[C@H](C(F)(F)F)CC2)cc1` [Example 132, 2,4-dimethyl-3-(4-((S)-2-(2-(oxetan-3-yl)-1,2,3,4-tetrahydropyrrolo[1,2-a]pyrazine-6-carboxamido)-2-((1r,4S)-4-(trifluoromethyl)cyclohexyl)acetamido)phenyl)pyridine 1-oxide]: 866 nM; for `COCCN1CCn2c(ccc2C(=O)N[C@H](C(=O)Nc2ccc(-c3c(C)cc[n+]([O-])c3C)cc2)C2CCCCC2)C1` [Example 135, (S)-3-(4-(2-cyclohexyl-2-(2-(2-methoxyethyl)-1,2,3,4-tetrahydropyrrolo[1,2-a]pyrazine-6-carboxamido)acetamido)phenyl)-2,4-dimethylpyridine 1-oxide]: 451 nM.
